Test results reported in patent US20100093777A1 (Takeda Pharmaceutical Company Limited, priority 2007, published 2010).

Columns and labels:
Human ACC1 = molecular target: T1, Human ACC1 (Homo sapiens, UniProt Q13085); assay: Measurement of ACC1 inhibitory activity (recombinant enzyme, malachite green absorbance); assay type: biochemical; details: recombinant human ACC1 8 μg/ml; 30° C.; 200 μM ATP, 200 μM Acetyl-CoA; absorbance 620 nm
T1 construct: His tag (from the pFAST-BacHTc vector); own knowledge: N-terminal 6xHis with TEV site; made in house; host or cells: SF-9 insect cells, recombinant baculovirus BAC-ACC1
Method: The ACC1 inhibitory action of the compound of the present invention was evaluated by the following method.
Human ACC1 gene was cloned by PCR using a human liver cDNA library (Clontech) as a template and Primer 1 and Primer 2 shown below. Primer 1 and Primer 2 were prepared by adding SalI, NotI restriction enzyme recognition sequence based on the information of the base sequence (Genbank Accession U19822) of human ACC1 gene.
(§1) PCR was performed using a Pyrobest DNA polymerase (TAKARA BIO INC.) The obtained PCR product was cloned to pT7 Blue vector (Novagen) and, after confirmation of the base sequence, digested with restriction enzymes SalI and NotI. The obtained DNA fragment was inserted to pFAST-BacHTc (Invitrogen) digested with restriction enzymes SalI and NotI to give expression plasmid ACC1/pFAST-BacHTc.
Using the expression plasmid and BAC-TO-BAC Baculovirus Expression System (Invitrogen), virus stock BAC-ACC1 of recombinant Baculovirus was prepared.
SF-9 cells (Invitrogen) were inoculated to a medium (1 L) for insect cells (Sf-900IISFM medium (Invitrogen) containing 10% fetal bovine serum (Trace), 50 mg/L Gentamicin (Invitrogen) and 0.1% Pluronic F-68 (Invitrogen)) at 1×10^6 cells/mL, and cultured with shaking at 27° C., 100 rpm in a 2 L Erlenmeyer flask.
After 24 hr of the culture, recombinant Baculovirus BAC-ACC1 (10 mL) was added, and the cells were further cultured for 3 days. The culture medium was centrifuged at 1000×g for 5 min to give virus-infected cells. The cells were washed with phosphate buffered saline (Invitrogen), and centrifuged under the same conditions, and the obtained cells were cryopreserved at −80° C.
The cryopreserved cells were thawed in ice and suspended in 100 mL of 25 mM HEPES buffer (pH 7.5) containing 10% Glycerol, 0.13 M NaCl, 1 mM EDTA, 25 mM Sodium β-Glycerophosphate and 1 mM Sodium Orthovanadate, and supplemented with Complete Protease Inhibitor (Nippon Boehringer Ingelheim Co., Ltd.). The obtained suspension was homogenized 3 times in a polytron homogenizer (Kinematica) at 20,000 rpm for 30 sec. The obtained cell disruption solution was clarified by centrifugation at 185700×g for 50 min, and filtered through a 0.45 μm filter. The filtrate was passed through a column packed with 12 mL of Ni-NTA Super Flow Gel (QUIAGEN) at a flow rate of about 5 mL/min. The column was washed with buffer A (50 mM HEPES (pH 7.5) containing 0.3 M NaCl), further washed with buffer A containing 20 mM Imidazole, and eluted with buffer A containing 100 mM Imidazole. The eluate was concentrated with Vivaspin 20 (Vivascience) with a molecular weight cut off of 30K. The obtained concentrate was dialyzed against Sephadex G-25 (Amersham Biosciences, 358 ml) equilibrated with 50 mM HEPES (pH 7.5) containing 10 mM MgCl2, 2 mM Dithiothreitol, 10 mM Tripotassium Citrate and 0.3 M NaCl. The inner dialysate was concentrated with Vivaspin 20 (Vivascience) with a molecular weight cut off of 30K, and the concentrate was filtered through a 0.22 μm filter to give ACC1. The obtained ACC1 was cryopreserved at −80° C.
ACC1 (0.93 mg/ml) obtained in the above-mentioned (2) was diluted with an enzyme reaction buffer (50 mM HEPES (pH 7.5), 10 mM MgCl2, 10 mM Tripotassium Citrate, 2 mM Dithiothreitol, 0.75 mg/ml Fatty acid free BSA) to concentration of 8 μg/ml, and the mixture was added to each well of 384 well assay plate (Nunc 265196) by 10 μl.
Thereafter, ACC1 inhibitory rate (%) was measured in the same manner as in the below-mentioned Experimental Example 2-(3), and IC50 value was calculated.
ACC2 (Nd) (1.1 mg/ml) obtained in the above-mentioned (2) was diluted with an enzyme reaction buffer (50 mM HEPES (pH 7.5), 10 mM MgCl2, 10 mM Tripotassium Citrate, 2 mM Dithiothreitol, 0.75 mg/ml Fatty acid free BSA) to a concentration of 6.4 μg/ml, and the mixture was added to each well of a 384 well assay plate (Nunc 265196) by 10 μl. […]

[1] = molecular target: T2, Human ACC2 (Nd, N terminal deleted) (Homo sapiens, UniProt O00763); assay: Measurement of ACC2 inhibitory activity (recombinant ACC2 (Nd), malachite green absorbance); assay type: biochemical; details: recombinant human ACC2 (Nd) 6.4 μg/ml; 30° C.; 200 μM ATP, 200 μM Acetyl-CoA; absorbance 620 nm
T2 construct: His tag (from the pFAST-BacHTa vector); own knowledge: N-terminal 6xHis with TEV site; made in house; host or cells: SF-9 insect cells, recombinant baculovirus BAC-ACC2 (Nd)
Method: The ACC2 inhibitory action of the compound of the present invention was evaluated by the following method.
Human ACC2 gene was cloned by PCR using a human skeletal muscle cDNA library (Clontech) as a template and Primer 1 and Primer 2 shown below. Primer 1 and Primer 2 were prepared by adding SalI, XbaI restriction enzyme recognition sequences based on the information of the base sequence (Genbank Accession U89344) of human ACC2 gene.
as §1, with “using” for “using a”, “INC.).” for “INC.)”, “XbaI.” for “NotI.”, “into pFAST-BacHTa” for “to pFAST-BacHTc”, “XbaI” for “NotI”, “ACC2/pFAST-BacHTa.” for “ACC1/pFAST-BacHTc.”
PCR was performed using the expression plasmid as a template and Primer 3 and Primer 4 shown below to prepare a plasmid to be used for expression of ACC2 free of mitochondrial targeting sequence.
as §1, with “Pyrobest-DNA” for “a Pyrobest DNA”, “INC.).” for “INC.)”, “AflII.” for “NotI.”, “into pFAST-BacHTa” for “to pFAST-BacHTc”, “AflII” for “NotI”, “ACC2mito7/pFAST-BacHTa.” for “ACC1/pFAST-BacHTc.”
Using the expression plasmid and BAC-TO-BAC Baculovirus Expression System (Invitrogen), virus stock BAC-ACC2 (N terminal deleted (hereinafter Nd)) of recombinant Baculovirus was prepared.
SF-9 cells (Invitrogen) were inoculated to a medium (2 L) for insect cells (Sf-900IISFM medium (Invitrogen) containing 10% fetal bovine serum (Trace), 50 mg/L Gentamicin (Invitrogen), 0.1% Pluronic F-68 (Invitrogen)) at 0.5×10^6 cells/mL, and cultured with shaking in Wave Bioreactor (Wave) at 27° C., 20 rpm, rocking angle […], oxygen concentration 30%.
On day 4 of the culture, 3 L of the medium for insect cells was added, the rocking angle was set to 8°, and the cells were cultured. On day 5 of the culture, 100 mL of recombinant Baculovirus BAC-ACC2 (Nd) was added, 5 L of the medium for insect cells was further added, the rocking angle was set to 11°, and the cells were cultured for 3 days. The culture medium was centrifuged at 1000×g for 10 min to give virus-infected cells. The cells were washed with phosphate buffered saline (Invitrogen) and centrifuged under the same conditions. The obtained cells were cryopreserved at −80° C.
The cryopreserved cells were thawed in ice and suspended in 900 mL of 25 mM HEPES buffer (pH 7.5) containing 10% Glycerol, 0.13 M NaCl, 1 mM EDTA, 25 mM Sodium βGlycerophosphate and 1 mM Sodium Orthovanadate, and supplemented with Complete Protease Inhibitor (Nippon Boehringer Ingelheim Co., Ltd.). The obtained suspension was homogenized 3 times in a polytron homogenizer (Kinematica) at 20,000 rpm for 30 sec. The obtained cell disruption solution was clarified by centrifugation at 31000×g for 60 min, and filtered through a 0.45 μm filter. The filtrate was passed through a column packed with 60 mL of Ni-NTA Super Flow Gel (QUIAGEN) at a flow rate of about 5 mL/min. The column was washed with buffer A (50 mM HEPES (pH 7.5) containing 0.3 M NaCl), further washed with buffer A containing 20 mM Imidazole, and eluted with buffer A containing 100 mM Imidazole. The eluate was concentrated with Vivaspin 20 (Vivascience) with a molecular weight cut off of 30K. The obtained concentrate was dialyzed against 50 mM HEPES (pH 7.5) containing 10 mM MgCl2, 2[…] Dithiothreitol, 10 mM Tripotassium Citrate and 0.3 M NaCl. The inner dialysate was filtered through a 0.22 μm filter to give ACC2 (Nd). The obtained ACC2 (Nd) was cryopreserved at −80° C.
A test compound was dissolved in dimethyl sulfoxide (DMSO) and the mixture was diluted with an enzyme reaction buffer and the resulting solution (5 μl) was added to each well.

T2 sequence (O00763 117-2458 limits assumed, stated change not applied): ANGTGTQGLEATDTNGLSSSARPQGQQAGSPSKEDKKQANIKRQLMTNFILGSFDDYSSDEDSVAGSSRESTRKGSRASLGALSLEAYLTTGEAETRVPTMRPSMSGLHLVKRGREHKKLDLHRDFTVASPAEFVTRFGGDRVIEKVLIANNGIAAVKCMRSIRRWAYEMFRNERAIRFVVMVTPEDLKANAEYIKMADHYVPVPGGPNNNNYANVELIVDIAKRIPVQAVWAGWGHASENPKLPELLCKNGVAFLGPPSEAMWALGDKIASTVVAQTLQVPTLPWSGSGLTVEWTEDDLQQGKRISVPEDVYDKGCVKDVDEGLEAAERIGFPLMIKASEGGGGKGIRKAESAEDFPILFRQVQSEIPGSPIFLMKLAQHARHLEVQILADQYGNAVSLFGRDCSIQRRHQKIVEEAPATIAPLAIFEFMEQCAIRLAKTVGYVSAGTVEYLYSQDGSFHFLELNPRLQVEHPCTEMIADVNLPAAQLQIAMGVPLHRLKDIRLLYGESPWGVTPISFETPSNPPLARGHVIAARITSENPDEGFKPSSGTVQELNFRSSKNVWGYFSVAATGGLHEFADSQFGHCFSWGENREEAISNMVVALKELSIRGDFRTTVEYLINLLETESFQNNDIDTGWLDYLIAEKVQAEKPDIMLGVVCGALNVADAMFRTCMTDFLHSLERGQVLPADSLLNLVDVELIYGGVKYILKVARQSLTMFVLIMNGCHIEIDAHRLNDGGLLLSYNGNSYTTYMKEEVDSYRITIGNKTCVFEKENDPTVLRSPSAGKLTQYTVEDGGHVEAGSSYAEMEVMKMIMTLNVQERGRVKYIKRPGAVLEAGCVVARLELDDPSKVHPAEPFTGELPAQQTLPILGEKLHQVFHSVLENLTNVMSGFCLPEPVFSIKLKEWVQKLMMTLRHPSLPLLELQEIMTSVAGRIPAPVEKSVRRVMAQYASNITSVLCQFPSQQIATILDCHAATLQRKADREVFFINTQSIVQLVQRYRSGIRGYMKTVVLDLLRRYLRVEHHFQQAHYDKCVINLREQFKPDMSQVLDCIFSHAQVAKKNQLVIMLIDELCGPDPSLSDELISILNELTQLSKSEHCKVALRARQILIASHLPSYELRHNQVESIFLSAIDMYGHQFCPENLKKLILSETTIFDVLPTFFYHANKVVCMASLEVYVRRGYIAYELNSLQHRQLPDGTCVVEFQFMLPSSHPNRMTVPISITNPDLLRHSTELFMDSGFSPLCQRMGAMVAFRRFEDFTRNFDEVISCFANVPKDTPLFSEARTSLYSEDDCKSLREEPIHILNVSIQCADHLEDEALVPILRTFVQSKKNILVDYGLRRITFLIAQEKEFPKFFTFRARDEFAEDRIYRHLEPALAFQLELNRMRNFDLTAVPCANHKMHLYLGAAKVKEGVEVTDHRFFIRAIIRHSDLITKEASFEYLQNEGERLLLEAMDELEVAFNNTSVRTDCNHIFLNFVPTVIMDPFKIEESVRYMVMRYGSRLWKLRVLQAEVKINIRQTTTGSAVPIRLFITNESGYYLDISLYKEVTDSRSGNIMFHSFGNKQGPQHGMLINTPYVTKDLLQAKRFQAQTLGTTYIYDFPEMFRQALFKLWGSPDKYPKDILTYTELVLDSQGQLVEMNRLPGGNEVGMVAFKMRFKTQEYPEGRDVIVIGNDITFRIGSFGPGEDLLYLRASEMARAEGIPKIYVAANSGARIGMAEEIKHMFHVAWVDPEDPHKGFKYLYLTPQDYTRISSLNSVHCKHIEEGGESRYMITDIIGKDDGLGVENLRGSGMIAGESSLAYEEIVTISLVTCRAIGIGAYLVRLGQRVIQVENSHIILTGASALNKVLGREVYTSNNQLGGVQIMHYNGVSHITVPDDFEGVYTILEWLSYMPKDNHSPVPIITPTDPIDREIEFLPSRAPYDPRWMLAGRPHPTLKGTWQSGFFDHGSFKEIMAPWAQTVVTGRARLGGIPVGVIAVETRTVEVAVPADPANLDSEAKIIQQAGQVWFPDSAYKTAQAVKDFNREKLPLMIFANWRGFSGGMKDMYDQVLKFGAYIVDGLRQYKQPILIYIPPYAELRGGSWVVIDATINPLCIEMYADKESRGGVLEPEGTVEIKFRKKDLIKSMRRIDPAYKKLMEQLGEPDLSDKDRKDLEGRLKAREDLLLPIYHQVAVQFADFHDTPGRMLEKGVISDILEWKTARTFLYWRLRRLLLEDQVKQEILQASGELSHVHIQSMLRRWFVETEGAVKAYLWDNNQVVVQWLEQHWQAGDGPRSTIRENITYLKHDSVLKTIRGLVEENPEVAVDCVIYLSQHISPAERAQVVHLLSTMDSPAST

SMILES	IC50 (Human ACC1) [nM]	IC50 [1] [nM]	melting point [°C]
CCNC(=O)Nc1sc2nc(C)ccc2c1C(=O)N1CCC(N2CCCC3(C2)CC(C)(C)OC3=O)CC1 (single isomer, unassigned) [Example 28, N-(3-{[4-(3,3-dimethyl-1-oxo-2-oxa-7-azaspiro[4.5]dec-7-yl)piperidin-1-yl]carbonyl}-6-methylthieno[2,3-b]pyridin-2-yl)-N′-ethylurea]	10 to 100	1 to 10	–
CCNC(=O)Nc1sc2nc(C)ccc2c1C(=O)N1CCC(N2CCCC3(CCN(C(C)C)C3=O)C2)CC1 (single isomer, unassigned) [Example 65, N-ethyl-N′-(3-{[4-(2-isopropyl-1-oxo-2,7-diazaspiro[4.5]dec-7-yl)piperidin-1-yl]carbonyl}-6-methylthieno[2,3-b]pyridin-2-yl)urea]	10 to 100	1 to 10	–
CCNC(=O)Nc1sc2nc(C)c(C)cc2c1C(=O)N1CCC(N2CCCC3(C2)N=C(C)N(C(C)C)C3=O)CC1 (stereo not shown) [Example 56]	10 to 100	1 to 10	–
CNC(=O)Nc1sc2nc(C)ccc2c1C(=O)N1CCC(N2CCCC3(CCN(C(C)C)C3=O)C2)CC1 (stereo not shown) [Example 64, N-(3-{[4-(2-isopropyl-1-oxo-2,7-diazaspiro[4.5]dec-7-yl)piperidin-1-yl]carbonyl}-6-methylthieno[2,3-b]pyridin-2-yl)-N′-methylurea]	–	–	195 to 198
CNC(=O)Nc1sc2nc(C)c(C)cc2c1C(=O)N1CCC(N2CCCC3(C2)CC(C)(C)OC3=O)CC1 (stereo not shown) [Example 74]	–	1 to 10	–
CCNC(=O)Nc1sc2nc(C)c(C)cc2c1C(=O)N1CCC(N2CCCC3(C2)CC(C)(C)OC3=O)CC1 (stereo not shown) [Example 75]	–	1 to 10	–
CNC(=O)Nc1sc2nc(C)ccc2c1C(=O)N1CCC(N2CCCC3(C2)CC(C)(C)OC3=O)CC1 (stereo not shown) [Example 78, N-(3-{[4-(3,3-dimethyl-1-oxo-2-oxa-7-azaspiro[4.5]dec-7-yl)piperidin-1-yl]carbonyl}-6-methylthieno[2,3-b]pyridin-2-yl)-N′-methylurea]	10 to 100	1 to 10	–
CCNC(=O)Nc1sc2nc(C)ccc2c1C(=O)N1CCC(N2CCCC3(C2)CC(C)(C)OC3=O)CC1 (stereo not shown) [Example 79, N-(3-{[4-(3,3-dimethyl-1-oxo-2-oxa-7-azaspiro[4.5]dec-7-yl)piperidin-1-yl]carbonyl}-6-methylthieno[2,3-b]pyridin-2-yl)-N′-ethylurea]	10 to 100	1 to 10	–

The next lines start with the values.

IC50 (Human ACC1) [nM]	IC50 [1] [nM]	melting point [°C]	SMILES
10 to 100	1 to 10	–	CNC(=O)Nc1sc2ncccc2c1C(=O)N1CCC(N2CCCC3(C2)CC(C)(C)OC3=O)CC1 (single isomer, unassigned) [Example 14, N-(3-{[4-(3,3-dimethyl-1-oxo-2-oxa-7-azaspiro[4.5]dec-7-yl)piperidin-1-yl]carbonyl}thieno[2,3-b]pyridin-2-yl)-N′-methylurea]
10 to 100	1 to 10	–	CNC(=O)Nc1sc2nc(C)ccc2c1C(=O)N1CCC(N2CCCC3(CC(=O)N(C(C)C)C3=O)C2)CC1 (single isomer, unassigned) [Example 18, N-(3-{[4-(2-isopropyl-1,3-dioxo-2,7-diazaspiro[4.5]dec-7-yl)piperidin-1-yl]carbonyl}-6-methylthieno[2,3-b]pyridin-2-yl)-N′-methylurea]
10 to 100	1 to 10	–	CNC(=O)Nc1sc2nc(C)ccc2c1C(=O)N1CCC(N2CCCC3(C2)CC(C)(C)OC3=O)CC1 (single isomer, unassigned) [Example 27, N-(3-{[4-(3,3-dimethyl-1-oxo-2-oxa-7-azaspiro[4.5]dec-7-yl)piperidin-1-yl]carbonyl}-6-methylthieno[2,3-b]pyridin-2-yl)-N′-methylurea]
